Results as given in patent publication US11498903B2 (BRISTOL-MYERS SQUIBB COMPANY, priority 2017, dated 2022).
Like-named read-outs stand apart in the source and are kept apart here.

Target: T1, human APJ receptor (Homo sapiens, UniProt P35414)
T1 construct: expressed in transfected cells
T1 sequence (P35414 1-380): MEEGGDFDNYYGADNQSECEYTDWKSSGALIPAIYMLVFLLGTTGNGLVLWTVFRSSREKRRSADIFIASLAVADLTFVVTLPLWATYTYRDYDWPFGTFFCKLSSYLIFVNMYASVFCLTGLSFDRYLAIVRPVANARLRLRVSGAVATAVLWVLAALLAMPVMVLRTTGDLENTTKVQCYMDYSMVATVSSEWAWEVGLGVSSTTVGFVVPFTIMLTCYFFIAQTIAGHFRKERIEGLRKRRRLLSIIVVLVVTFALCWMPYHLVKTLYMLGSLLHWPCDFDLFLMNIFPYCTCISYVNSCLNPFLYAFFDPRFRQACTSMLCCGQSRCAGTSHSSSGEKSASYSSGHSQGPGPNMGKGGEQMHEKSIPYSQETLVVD
Assay: Intracellular cAMP accumulation assay (APJ hcAMP, HTRF)
Assay type: cell-based
Method: Intracellular cAMP Accumulation Assay
HEK293 cells stably expressing human APJ receptor were used to assess the activity of compounds. Cultured cells were detached and resuspended in the cAMP Homogeneous Time-Resolved Fluorescence (HTRF) assay buffer (Cisbio cat; #62AM4PEJ). The assay was performed in 384-well assay plates (Perkin-Elmer; cat #6008289) according to assay protocol provided by the manufacturer. Serial dilutions of a compound together with assay buffer containing […] IBMX and 2 μM forskolin were added to each well containing 5,000 cells and incubated for 30 minutes at room temperature. Subsequently, cAMP D2 reagent was added in the lysis buffer followed by the EuK antibody (Cisbio; cat #62AM4PEJ) and incubated for 60 min. The fluorescence emission ratio was measured using fluorometer. The intracellular cAMP concentrations (compound-stimulated inhibition of forskolin-mediated cAMP production) were calculated by extrapolation from a standard curve using known cAMP concentrations. The EC50 values were obtained by fitting the data to a sigmoidal concentration-response curve with variable slope. The maximal achievable inhibition of forskolin-induced cAMP levels (Ymax) for each compound was expressed as relative percentage of inhibition attained using pyroglutamated apelin-13 ((Pyrl)apelin-13) peptide, which was set to 100%.
The exemplified Examples disclosed below were tested in the APJ in vitro assays described above and were found having human APJ cyclic AMP (hcAMP) activity. Table 1 lists hcAMP EC50 values measured for the following examples. Ranges are as followε: A=0.0-10 nM; B=10.01-100 nM; C=101-500 nM.

[1] = Table 3, HEK293 cells stably expressing human APJ receptor, read-out: APJ cAMP Human EC50
[2] = Table 1, HEK293 cells stably expressing human APJ receptor, inhibition of forskolin-mediated cAMP production, read-out: APJ hcAMP EC50
[3] = human APJ, cAMP, potency range class, read-out: APJ cAMP Human EC50

Compound	EC50 [1] [µM]	EC50 [2] [µM]	EC50 [3] [µM]
CCC[C@@H](NC(=O)c1ccc(-c2c(Cl)cccc2-c2nc(C)c(-c3ccccc3)[nH]2)c(C(=O)O)c1)c1ccccc1 (atropisomer, axis not shown) [Example 106, (S)-2′-chloro-6′-(4-methyl-5-phenyl-1H-imidazol-2-yl)-4-{[(1R)-1-phenylbutyl]carbamoyl}-[1,1′-biphenyl]-2-carboxylic acid]	0.01 to 0.1		
CCC[C@@H](NC(=O)c1ccc(-c2c(Cl)cccc2-c2ncc(-c3ccncc3)[nH]2)c(C(=O)O)c1)c1ccccc1 (atropisomer, axis not shown) [Example 107, (S)-2′-chloro-4-{[(1R)-1-phenylbutyl]carbamoyl}-6′-[5-(pyridin-4-yl)-1H-imidazol-2-yl]-[1,1′-biphenyl]-2-carboxylic acid]	0.01 to 0.1		
CCC[C@@H](NC(=O)c1ccc(-c2c(Cl)cccc2-c2nc3cc(Cl)c(F)cc3[nH]2)c(C(=O)O)c1)c1ccccc1 (atropisomer, axis not shown) [Example 108, (S)-2′-chloro-6′-(5-chloro-6-fluoro-1H-1,3-benzodiazol-2-yl)-4-{[(1R)-1-phenylbutyl]carbamoyl}-[1,1′-biphenyl]-2-carboxylic acid]	< 0.01		
CCC[C@@H](NC(=O)c1ccc(-c2c(Cl)cccc2-c2nc3cc(O)ccc3[nH]2)c(C(=O)OC)c1)c1ccccc1 (atropisomer, axis not shown) [Example 128, (S)-methyl 2′-chloro-6′-(5-hydroxy-1H-1,3-benzodiazol-2-yl)-4-{[(1R)-1-phenylbutyl]carbamoyl}-[1,1′-biphenyl]-2-carboxylate]	0.01 to 0.1		
CCC[C@@H](NC(=O)c1ccc(-c2c(Cl)cccc2-c2nc3cc(OC)ccc3[nH]2)c(C(=O)O)c1)c1ccccc1 (atropisomer, axis not shown) [Example 132, (S)-2′-chloro-6′-(5-methoxy-1H-1,3-benzodiazol-2-yl)-4-{[(1R)-1-phenylbutyl]carbamoyl}-[1,1′-biphenyl]-2-carboxylic acid]	< 0.01	< 0.01	
CCC[C@@H](NC(=O)c1ccc(-c2c(Cl)cccc2-c2nc3cnccc3[nH]2)c(C(=O)O)c1)c1ccccc1 (atropisomer, axis not shown) [Example 133, (S)-2′-chloro-6′-{1H-imidazo[4,5-c]pyridin-2-yl}-4-{[(1R)-1-phenylbutyl]carbamoyl}-[1,1′-biphenyl]-2-carboxylic acid]	< 0.01		
CCC[C@@H](NC(=O)c1ccc(-c2c(Cl)cccc2-c2nc3cc(OC(C)=O)ccc3[nH]2)c(C(=O)O)c1)c1ccccc1 (atropisomer, axis not shown) [Example 134, (S)-2′-[5-(acetyloxy)-1H-1,3-benzodiazol-2-yl]-6′-chloro-4-{[(1R)-1-phenylbutyl]carbamoyl}-[1,1′-biphenyl]-2-carboxylic acid]	< 0.01	< 0.01	
CCC[C@@H](NC(=O)c1ccc(-c2c(Cl)cccc2-c2nc3cc(O)ccc3[nH]2)c(C(=O)O)c1)c1ccccc1 (atropisomer, axis not shown) [Example 135, (S)-2′-chloro-6′-(5-hydroxy-1H-1,3-benzodiazol-2-yl)-4-{[(1R)-1-phenylbutyl]carbamoyl}-[1,1′-biphenyl]-2-carboxylic acid]	0.01 to 0.1		
CCC[C@@H](NC(=O)c1ccc(-c2c(Cl)cccc2-c2nc3cc(OC(C)=O)ccc3[nH]2)c(C(=O)O)c1)c1ccccc1 (atropisomer, axis not shown) [Example 136, (S)-2′-[5-(acetyloxy)-1H-1,3-benzodiazol-2-yl]-6′-chloro-4-{[(1R)-1-phenylbutyl]carbamoyl}-[1,1′-biphenyl]-2-carboxylic acid]	0.101 to 0.5		
CCC[C@@H](NC(=O)c1ccc(-c2c(Cl)cccc2-c2nc3ccccc3[nH]2)c(C(=O)O)c1)c1ccccc1 (atropisomer, axis not shown) [Example 141, (R)-2′-(1H-1,3-benzodiazol-2-yl)-6′-chloro-4-{[(1R)-1-phenylbutyl]carbamoyl}-[1,1′-biphenyl]-2-carboxylic acid]	0.01 to 0.1		
COC[C@@H](NC(=O)c1ccc(-c2c(Cl)cccc2-c2nc3ccccc3[nH]2)c(C(=O)O)c1)c1ccccc1 (atropisomer, axis not shown) [Example 150, (S)-2′-(1H-1,3-benzodiazol-2-yl)-6′-chloro-4-{[(1S)-2-methoxy-1-phenylethyl]carbamoyl}-[1,1′-biphenyl]-2-carboxylic acid]	< 0.01	< 0.01	
CC(C)(O)C[C@@H](NC(=O)c1ccc(-c2c(Cl)cccc2-c2nc3ccccc3[nH]2)c(C(=O)O)c1)c1ccccc1 (atropisomer, axis not shown) [Example 151, (S)-2′-(1H-1,3-benzodiazol-2-yl)-6′-chloro-4-{[(1R)-3-hydroxy-3-methyl-1-phenylbutyl]carbamoyl}-[1,1′-biphenyl]-2-carboxylic acid]	< 0.01	< 0.01	
CCC[C@H](NC(=O)c1ccc(-c2c(Cl)cccc2-c2nc3ccccc3[nH]2)c(C(=O)O)c1)c1ccccc1 (atropisomer, axis not shown) [Example 152, (S)-2′-(1H-1,3-benzodiazol-2-yl)-6′-chloro-4-{[(1S)-1-phenylbutyl]carbamoyl}-[1,1′-biphenyl]-2-carboxylic acid]	0.01 to 0.1		
COC[C@@H](NC(=O)c1ccc(-c2c(Cl)cccc2-c2nc3cc(OC)c(F)cc3[nH]2)c(C(=O)O)c1)c1ccccc1 (atropisomer, axis not shown) [Example 154, (S)-2′-chloro-6′-(6-fluoro-5-methoxy-1H-1,3-benzodiazol-2-yl)-4-{[(1S)-2-methoxy-1-phenylethyl]carbamoyl}-[1,1′-biphenyl]-2-carboxylic acid]	< 0.01		
CCC[C@@H](NC(=O)c1ccc(-c2c(Cl)cccc2-c2nc3cc(O)ccc3[nH]2)c(C(=O)O)c1)c1ccccc1 (atropisomer, axis not shown) [Example 155, (S)-2′-chloro-6′-(5-hydroxy-1H-1,3-benzodiazol-2-yl)-4-{[(1R)-1-phenylbutyl]carbamoyl}-[1,1′-biphenyl]-2-carboxylic acid]	< 0.01		
O=C(N[C@H](CN1CCOCC1)c1ccccc1)c1ccc(-c2c(Cl)cccc2-c2nc3ccccc3[nH]2)c(C(=O)O)c1 (atropisomer, axis not shown) [Example 156, (S)-2′-(1H-1,3-benzodiazol-2-yl)-6′-chloro-4-{[(1S)-2-(morpholin-4-yl)-1-phenylethyl]carbamoyl}-[1,1′-biphenyl]-2-carboxylic acid]	< 0.01	< 0.01	
CCC[C@@H](NC(=O)c1ccc(-c2c(Cl)cccc2-c2nc3ccc(F)c(F)c3[nH]2)c(C(=O)O)c1)C1CCCCC1 (atropisomer, axis not shown) [Example 159, (S)-2′-chloro-4-{[(1R)-1-cyclohexylbutyl]carbamoyl}-6′-(6,7-difluoro-1H-1,3-benzodiazol-2-yl)-[1,1′-biphenyl]-2-carboxylic acid]		< 0.01	< 0.01
CCC[C@@H](NC(=O)c1ccc(-c2c(Cl)cccc2-c2nc3cc(F)c(F)cc3[nH]2)c(C(=O)O)c1)C1CCCCC1 (atropisomer, axis not shown) [Example 162, (S)-2′-chloro-4-{[(1R)-1-cyclohexylbutyl]carbamoyl}-6′-(5,6-difluoro-1H-1,3-benzodiazol-2-yl)-[1,1′-biphenyl]-2-carboxylic acid]		< 0.01	< 0.01
O=C(NC(CCC(F)(F)F)c1ccccc1)c1ccc(-c2cc(Cl)ccc2-c2nc3ccccc3[nH]2)c(C(=O)O)c1 (racemic) [Example 158, 2′-(1H-Benzo[d]imidazol-2-yl)-5′-chloro-4-((4,4,4-trifluoro-1-phenylbutyl)carbamoyl)-[1,1′-biphenyl]-2-carboxylic acid]		0.01 to 0.1	0.01 to 0.1
CC(C)CC(NC(=O)c1ccc(-c2cc(Cl)ccc2-c2nc3ccccc3[nH]2)c(C(=O)O)c1)c1ccccc1 (racemic) [Example 210, 2′-(1H-1,3-benzodiazol-2-yl)-5′-chloro-4-[(3-methyl-1-phenylbutyl)carbamoyl]-[1,1′-biphenyl]-2-carboxylic acid]		< 0.01	< 0.01
CC(C)(C)CC(NC(=O)c1ccc(-c2cc(Cl)ccc2-c2nc3ccccc3[nH]2)c(C(=O)O)c1)c1ccccc1 (racemic) [Example 212, 2′-(1H-1,3-benzodiazol-2-yl)-5′-chloro-4-[(3,3-dimethyl-1-phenylbutyl)carbamoyl]-[1,1′-biphenyl]-2-carboxylic acid]		0.01 to 0.1	0.01 to 0.1
